Data taken from patent US20240069010A1, “TISSUE ORGANOID BIOPRINTING AND HIGH-THROUGHPUT SCREENING METHODOLOGY” (priority 2020, published 2024).

Tests used:
BT-474 organoids = experiment: HSLCI mass tracking of bioprinted organoids in drug screening; type: cell-based; settings: for Organoid Behavior (%) Gained Mass: mass increase >10%; for Organoid Behavior (%) Lost Mass: mass loss >10%; for Organoid Behavior (%) Stable: mass change <10%
Excerpt: (§1) Cells were bioprinted using a CELLINK BioX with a Temperature-Controlled Printhead. Gcode files were written to print the desired single-layer geometry. We wrote standardized blocks of Gcode encode the print path for the repeated geometries. MATLAB (MathWorks, Inc.) was used to integrate these standardized blocks into full Gcode files with the defined coordinates for each well. We used 8-well plates when printing the larger constructs as the depth of the well in a standard 24-well plate prohibited the use of 0.5″ length needles. Large rings were necessary to deposit a sufficient number of cells for RNA-Seq and IHC. Four rings with a diameter of 14.5 mm were printed for RNA sequencing (approximately 200,000 cells total), while four sets of concentric 14.5 mm, 12.5 mm, and 10.5 mm diameter rings were used for IHC analysis (approximately 500,000 cells total). We printed mini-squares with side length 3.9 mm for drug screening and HSLCI imaging. The mini-squares were inscribed within the circular well with sides parallel to the sides of the well plate. The open center of the constructs facilitates automatic manipulation with fluid handling equipment while the sides of the square are positioned to maximize the number of organoids imaged by HSLCI. The bioprinting process utilized the same material deposited for manually seeded organoids. A single cell suspension, aggregates or clusters in a 3:4 mixture of MammoCult™ and Matrigel® was prepared on ice. After vortexing briefly to homogenize, the mixture was transferred into a 3 mL syringe by removing the plunger and capping the opposite end. Once the plunger was replaced, the syringe was inverted, and bubbles were forced out of the tip. The material was then transferred to a room temperature 3 mL bioprinter cartridge (CELLINK) by connecting the syringe and cartridge with a double-sided female Luer lock adapter (CELLINK). Any air bubbles in the syringe were removed and the loaded cartridge was incubated in a rotating incubator (Enviro-Genie, Scientific Industries) for 30 minutes at the print temperature.
(§2) During the incubation period, the printer was sterilized with the built-in UV irradiation function and the printhead was set to the print temperature. […] The well masks were autoclaved prior to use. The masks were inserted into the well plate and pressed in contact with the glass surface. Rubber bands were used to hold the masks in place and ensure conformal contact was maintained throughout the plasma treatment. The well plates were treated with oxygen plasma in a PE-25 (Plasma Etch) for 30-90 seconds, 15 minutes prior to bioprinting. After plasma treatment, the well plate was placed in the bioprinter and Automatic Bed Levelling (ABL) was performed.
(§3) Once the incubation period ended, we attached a 0.5″ 25-gauge needle and loaded the cartridge into the pre-cooled printhead. We primed the needle by extruding a small volume of material at 15 kPa prior to calibrating the printer. Just before printing, we cleared the needle of the gelled material by extruding a small volume using 40 kPa prior to starting the print. To create constructs of the appropriate thicknesses, prints in 8-well plates were extruded at 15 kPa while prints in 96-well plates were extruded at 12-15 kPa. […] After printing, the constructs were incubated at 37° C. for at least 30 minutes to solidify the matrix and 100 μL of MammoCult™ medium was then added.
(§4) The HSLCI platform was installed inside a standard cell culture incubator. For all growth kinetics studies and drug screening, organoids were imaged in 96-well glass-bottom plates (Cellvis P96-1.5H-N) using a 40× objective (Nikon, NA 0.75). Organoids were seeded as single-cell suspensions in a 3:4 mixture of MammoCult™ and Matrigel® as described above and were grown at 37° C. and 5% CO2 in MammoCult™ medium supplemented with 1% antibiotic-antimycotic (Gibco 15240-062).

MCF-7 organoids = experiment: as above; type: cell-based; settings: for Mean mass of MCF-7 organoids, Mean mass ± SD: 48 hours of treatment; for Organoid Behavior (%) Stable / Organoid Behavior (%) Gained Mass / Organoid Behavior (%) Lost Mass: MCF-7 organoids; for Organoid Behavior (%) Stable: mass change <10%; for Organoid Behavior (%) Gained Mass: mass increase >10%; for Organoid Behavior (%) Lost Mass: mass loss >10%
Excerpt: as §1, §2, §3, §4

**Q.** `CN[C@@H]1C[C@H]2O[C@@](C)([C@@H]1OC)n1c3ccccc3c3c4c(c5c6ccccc6n2c5c31)C(=O)NC4` [Staurosporine, staurosporine] was tested. Which “Mean mass of BT-474 organoids, Mean mass ± SD” value (BT-474 organoids; 1 μM, 6 hours of treatment) did it give?
**A.** 1.38 ± 0.49 ng

**Q.** And the “Mean mass of BT-474 organoids, Mean mass ± SD” value (BT-474 organoids; 1 μM, 48 hours of treatment)?
**A.** 0.70 ± 0.26 ng

**Q.** And the “Mean mass of BT-474 organoids, Mean mass ± SD” value (BT-474 organoids; 1 μM, 48 hours of treatment, listed as staurosporine)?
**A.** 0.70 ± 0.26 ng

**Q.** And the “Mean mass of BT-474 organoids, Mean mass ± SD” value (BT-474 organoids; 10 μM, 6 hours of treatment)?
**A.** 1.46 ± 0.72 ng

**Q.** And the “Mean mass of BT-474 organoids, Mean mass ± SD” value (BT-474 organoids; 10 μM, 48 hours of treatment)?
**A.** 0.83 ± 0.72 ng

**Q.** What about the “Mean mass of BT-474 organoids, Mean mass ± SD” value (BT-474 organoids; 10 μM, 48 hours of treatment, listed as staurosporine) of the same molecule?
**A.** 0.83 ± 0.72 ng

**Q.** And the “Organoid Behavior (%) Gained Mass” value (BT-474 organoids; BT-474 organoids, 0.1 μM, 12 h)?
**A.** 27.6%

**Q.** And the “Organoid Behavior (%) Lost Mass” value (BT-474 organoids; BT-474 organoids, 0.1 μM, 12 h)?
**A.** 1.7%

**Q.** And the “Organoid Behavior (%) Stable” value (BT-474 organoids; BT-474 organoids, 0.1 μM, 24 h)?
**A.** 50.0%

**Q.** What about the “Organoid Behavior (%) Gained Mass” value (BT-474 organoids; BT-474 organoids, 0.1 μM, 24 h) of the same molecule?
**A.** 45.8%

**Q.** And the “Organoid Behavior (%) Lost Mass” value (BT-474 organoids; BT-474 organoids, 0.1 μM, 24 h)?
**A.** 4.2%

**Q.** What about the “Organoid Behavior (%) Stable” value (BT-474 organoids; BT-474 organoids, 0.1 μM, 48 h) of the same molecule?
**A.** 23.4%

**Q.** What about the “Organoid Behavior (%) Gained Mass” value (BT-474 organoids; BT-474 organoids, 0.1 μM, 48 h) of the same molecule?
**A.** 70.1%

**Q.** And the “Organoid Behavior (%) Lost Mass” value (BT-474 organoids; BT-474 organoids, 0.1 μM, 48 h)?
**A.** 6.5%

**Q.** What about the “Organoid Behavior (%) Stable” value (BT-474 organoids; BT-474 organoids, 1 μM, 12 h) of the same molecule?
**A.** 47.6%

**Q.** And the “Organoid Behavior (%) Gained Mass” value (BT-474 organoids; BT-474 organoids, 1 μM, 12 h)?
**A.** 19.0%

**Q.** What about the “Organoid Behavior (%) Gained Mass” value (BT-474 organoids; BT-474 organoids, 1 μM, 12 h, listed as staurosporine) of the same molecule?
**A.** 19%

**Q.** What about the “Organoid Behavior (%) Stable” value (BT-474 organoids; BT-474 organoids, 1 μM, 24 h) of the same molecule?
**A.** 29.5%

**Q.** What about the “Organoid Behavior (%) Gained Mass” value (BT-474 organoids; BT-474 organoids, 1 μM, 24 h) of the same molecule?
**A.** 13.6%

**Q.** And the “Organoid Behavior (%) Lost Mass” value (BT-474 organoids; BT-474 organoids, 1 μM, 24 h)?
**A.** 56.8%

**Q.** And the “Organoid Behavior (%) Stable” value (BT-474 organoids; BT-474 organoids, 1 μM, 48 h)?
**A.** 12.0%

**Q.** What about the “Organoid Behavior (%) Gained Mass” value (BT-474 organoids; BT-474 organoids, 1 μM, 48 h) of the same molecule?
**A.** 4.0%

**Q.** And the “Organoid Behavior (%) Lost Mass” value (BT-474 organoids; BT-474 organoids, 1 μM, 48 h)?
**A.** 84.0%

**Q.** And the “reduction in the number of organoids that increased in size” value (BT-474 organoids; BT-474 organoids, 1 μM, after 12 hours, compared to the control)?
**A.** 60%

**Q.** What about the “Organoid Behavior (%) Stable” value (BT-474 organoids; BT-474 organoids, 10 μM, 12 h) of the same molecule?
**A.** 64.3%

**Q.** And the “Organoid Behavior (%) Gained Mass” value (BT-474 organoids; BT-474 organoids, 10 μM, 12 h)?
**A.** 7.1%

**Q.** What about the “Organoid Behavior (%) Lost Mass” value (BT-474 organoids; BT-474 organoids, 10 μM, 12 h) of the same molecule?
**A.** 28.6%

**Q.** And the “Organoid Behavior (%) Stable” value (BT-474 organoids; BT-474 organoids, 10 μM, 24 h)?
**A.** 23.9%

**Q.** And the “Organoid Behavior (%) Gained Mass” value (BT-474 organoids; BT-474 organoids, 10 μM, 24 h)?
**A.** 19.6%

**Q.** What about the “Organoid Behavior (%) Lost Mass” value (BT-474 organoids; BT-474 organoids, 10 μM, 24 h) of the same molecule?
**A.** 56.5%

**Q.** And the “Organoid Behavior (%) Gained Mass” value (BT-474 organoids; BT-474 organoids, 10 μM, 48 h)?
**A.** 14.8%

**Q.** And the “Organoid Behavior (%) Lost Mass” value (BT-474 organoids; BT-474 organoids, 10 μM, 48 h)?
**A.** 66.7%

**Q.** What about the “Mean mass of MCF-7 organoids, Mean mass ± SD” value (MCF-7 organoids; 1 μM) of the same molecule?
**A.** 1.33 ± 1.07 ng

**Q.** And the “Mean mass of MCF-7 organoids, Mean mass ± SD” value (MCF-7 organoids; 1 μM, listed as staurosporine)?
**A.** 1.33 ± 1.08 ng

**Q.** And the “Mean mass of MCF-7 organoids, Mean mass ± SD” value (MCF-7 organoids; 10 μM)?
**A.** 1.26 ± 0.78 ng

**Q.** And the “Mean mass of MCF-7 organoids, Mean mass ± SD” value (MCF-7 organoids; 10 μM, listed as staurosporine)?
**A.** 1.26 ± 0.80 ng

**Q.** And the “Organoid Behavior (%) Stable” value (MCF-7 organoids; 0.1 μM, 12 h)?
**A.** 76.5%

**Q.** What about the “Organoid Behavior (%) Gained Mass” value (MCF-7 organoids; 0.1 μM, 12 h) of the same molecule?
**A.** 8.8%

**Q.** And the “Organoid Behavior (%) Lost Mass” value (MCF-7 organoids; 0.1 μM, 12 h)?
**A.** 14.7%

**Q.** And the “Organoid Behavior (%) Stable” value (MCF-7 organoids; 0.1 μM, 24 h)?
**A.** 60.5%

**Q.** And the “Organoid Behavior (%) Lost Mass” value (MCF-7 organoids; 0.1 μM, 24 h)?
**A.** 23.3%

**Q.** What about the “Organoid Behavior (%) Stable” value (MCF-7 organoids; 0.1 μM, 48 h) of the same molecule?
**A.** 38.2%

**Q.** And the “Organoid Behavior (%) Gained Mass” value (MCF-7 organoids; 0.1 μM, 48 h)?
**A.** 29.4%

**Q.** And the “Organoid Behavior (%) Lost Mass” value (MCF-7 organoids; 0.1 μM, 48 h)?
**A.** 32.4%

**Q.** And the “Organoid Behavior (%) Stable” value (MCF-7 organoids; 1 μM, 12 h)?
**A.** 82.1%

**Q.** What about the “Organoid Behavior (%) Gained Mass” value (MCF-7 organoids; 1 μM, 12 h) of the same molecule?
**A.** 7.1%

**Q.** What about the “Organoid Behavior (%) Lost Mass” value (MCF-7 organoids; 1 μM, 12 h) of the same molecule?
**A.** 10.7%

**Q.** And the “Organoid Behavior (%) Stable” value (MCF-7 organoids; 1 μM, 24 h)?
**A.** 71.4%

**Q.** What about the “Organoid Behavior (%) Gained Mass” value (MCF-7 organoids; 1 μM, 24 h) of the same molecule?
**A.** 3.6%

**Q.** What about the “Organoid Behavior (%) Lost Mass” value (MCF-7 organoids; 1 μM, 24 h) of the same molecule?
**A.** 25.0%

**Q.** What about the “Organoid Behavior (%) Stable” value (MCF-7 organoids; 1 μM, 48 h) of the same molecule?
**A.** 73.3%

**Q.** And the “Organoid Behavior (%) Lost Mass” value (MCF-7 organoids; 1 μM, 48 h)?
**A.** 26.7%

**Q.** What about the “Organoid Behavior (%) Stable” value (MCF-7 organoids; 10 μM, 12 h) of the same molecule?
**A.** 79.6%

**Q.** And the “Organoid Behavior (%) Gained Mass” value (MCF-7 organoids; 10 μM, 12 h)?
**A.** 2.0%

**Q.** And the “Organoid Behavior (%) Lost Mass” value (MCF-7 organoids; 10 μM, 12 h)?
**A.** 18.4%

**Q.** And the “Organoid Behavior (%) Stable” value (MCF-7 organoids; 10 μM, 24 h)?
**A.** 51.4%

**Q.** And the “Organoid Behavior (%) Gained Mass” value (MCF-7 organoids; 10 μM, 24 h)?
**A.** 0.0%

**Q.** And the “Organoid Behavior (%) Lost Mass” value (MCF-7 organoids; 10 μM, 24 h)?
**A.** 48.6%

**Q.** And the “Organoid Behavior (%) Stable” value (MCF-7 organoids; 10 μM, 48 h)?
**A.** 32.1%

**Q.** What about the “Organoid Behavior (%) Gained Mass” value (MCF-7 organoids; 10 μM, 48 h) of the same molecule?
**A.** 3.6%

**Q.** And the “Organoid Behavior (%) Lost Mass” value (MCF-7 organoids; 10 μM, 48 h)?
**A.** 64.3%
